From patent US20030053950A1, “Individualization of therapy with hyperlipidemia agents” (McGill University, priority 2001, published 2003)
Read-outs that look alike come from different tables or passages of the source. Marks after values point to notes of the source that are not given here.

Key:
[1] = system: AAMU-Ab; experiment: Competitive antigen ELISA, cross-reactivity of AAMU-Ab; assay type: binding, rabbit; details: for % Cross-Reaction AAMU-Ab: competitive antigen ELISA, 0 = absence of inhibition or inhibition no higher than 40% at 5 × 10^−3 M
Procedure: (§1) Buffers and water without additives are filtered through millipore filters and kept for 1 week. BSA, antibodies, Tween™ 20 and horse radish peroxidase conjugates are added to these buffers and water just prior to use. Urine samples are usually collected 4 hours after drinking a cup of coffee (instant or brewed with approximately 100 mg of caffeine per cup) and stored at −80° C. The urine samples are diluted 10 times with sodium phosphate buffer (620 mosm, pH 7.50) and are subsequently diluted with water to give concentrations of AAMU and 1X no higher than 3×10^−6 M in the ELISA. All the pipettings are done with an eight-channel pipette, except those of the antibody and sample solutions. Starting with the last well, 100 μL of a carbonate buffer (100 mM, pH 9.6) containing 2.5 μg mL-^1 antibodies are added to each well. After 90 min. at room temperature, the wells are washed three times with […] of TPB: isotonic sodium phosphate buffer (310 mosm, pH 7.50) containing 0.05% Tween™ 20.
(§2) After the initial wash, unoccupied sites are blocked by incubation for 90 min. at room temperature with 100 μL TBP containing 3% BSA. The wells are washed four times with 100 μL TPB. […] The microplate is gently shaken with an orbital shaker at room temperature for 3-4 hours. The wells are washed three times with 100 μL TPB containing 1% BSA and three times with water containing 0.05% Tween™ 20. To the washed plate is added 150 μL of a substrate buffer composed of citric acid (25 mM) and sodium phosphate dibasic buffer (50 mM, pH 5.0) containing 0.06% hydrogen peroxide and 0.04% o-phenylenediamine hydrochloride.
(§3) Buffers and water without additives were filtered through millipore filters and kept for 1 week. BSA, antibodies, Tween™ 20 and horse radish peroxidase conjugates were added to these buffers and water just prior to use. Urine samples were usually collected 4 hours after drinking a cup of coffee (instant or brewed with approximately 100 mg of caffeine per cup) and stored at −80° C. They were diluted 10 times with sodium phosphate buffer (620 mosm, pH 7.50) and were subsequently diluted with water to give concentrations of AAMU and 1X no higher than 3×10^−6 M in the ELISA. All the pipettings were done with an eight-channel pipette, except those of the antibody and sample solutions. Starting with the last well, 100 μL of a carbonate buffer (100 mM, pH 9.6) containing 2.5 μg mL-^1 antibodies was pipetted. After 90 min. at room temperature, the wells were washed three times with 100 μL of TPB: isotonic sodium phosphate buffer (310 mosm, pH 7.50) containing 0.05% Tween™ 20.
(§4) After the initial wash, unoccupied sites were blocked by incubation for 90 min. at room temperature with 100 μL TBP containing 3% BSA. The wells were washed four times with 100 μL TPB. […] The microplate was gently shaken with an orbital shaker at room temperature for 3-4 hours. The wells were washed three times with 100 μL with TPB containing 1% BSA and three times with water containing 0.05% Tween™ 20. To the washed plate was added 150 μL of a substrate buffer composed of citric acid (25 mM) and sodium phosphate dibasic buffer (50 mM, pH 5.0) containing 0.06% hydrogen peroxide and 0.04% o-phenylenediamine hydrochloride. After 20 min. at room temperature with shaking, the reaction was stopped with 50 μL of 2.5 N HCl.
(§5) The cross reactivities of AAMU-Ab and 1X-Ab were tested using a wide variety of caffeine metabolites and structural analogs (Table 2 below).

[2] = system: 1X-Ab; experiment: Competitive antigen ELISA, cross-reactivity of 1X-Ab; assay type: binding, rabbit; details: for % Cross-Reaction 1X-Ab: competitive antigen ELISA, 0 = absence of inhibition or inhibition no higher than 40% at 5 × 10^−3 M
Procedure: as §1, §2, §3, §4, §5

[3] = cited from earlier work
[4] = cited from earlier work; remark: listed apart in the source
[5] = cited from earlier work; remark: listed apart in the source

| SMILES | % Cross-Reaction AAMU-Ab [1] | % Cross-Reaction 1X-Ab [2] | further results |
| --- | --- | --- | --- |
| Cn1c(=O)c2c(ncn2C)n(C)c1=O [1,3,7-Trimethyl Xanthine (Caffeine), 1,3,7-Trimethyl Xanthine] | 0% | 0% | – |
| Cn1c(=O)c2[nH]cnc2n(C)c1=O [1,3-Dimethyl Xanthine (Theophylline), 1,3-Dimethyl Xanthine] | 0% | 0.2% | – |
| Cn1c(=O)[nH]c2ncn(C)c2c1=O [1,7-Dimethyl Xanthine (Paraxanthine), 1,7-Dimethyl Xanthine] | 0% | 0.5% | – |
| Cn1c(=O)[nH]c2[nH]c(=O)n(C)c2c1=O [1,7-Dimethyluric acid] | 0% | 0% | – |
| Cn1c(=O)[nH]c2nc[nH]c2c1=O [1-Methyl Xanthine (1X), 1-Methyl Xanthine] | 0% | 100% | IC50 ([2]; read-out: concentration required for 50% inhibition in the competitive antigen ELISA, 1X-Ab): 10 µM |
| Cn1c(=O)[nH]c2[nH]c(=O)[nH]c2c1=O [1-Methyluric acid] | 0% | 11% | – |
| Cn1cnc2c1c(=O)[nH]c(=O)n2C [3,7-Dimethyl Xanthine (Theobromine), 3,7-Dimethyl Xanthine] | 0% | 0% | – |
| Cn1c(=O)[nH]c(=O)c2[nH]cnc21 [3-Methyl Xanthine] | 0% | 0% | – |
| CC(=O)Nc1c(N)n(C)c(=O)n(C)c1=O [5-Acetamino-6-amino-1,3-dimethyluracil] | 0% | 0% | – |
| CC(=O)Nc1c(N)n(C)c(=O)[nH]c1=O [5-Acetamino-6-amino-1-methyluracil] | 100% | 0% | IC50 ([1]; read-out: concentration required for 50% inhibition in the competitive antigen ELISA, AAMU-Ab): 1.5 µM |
| CC(=O)Nc1c(N)[nH]c(=O)[nH]c1=O [5-Acetamino-6-amino-uracil] | 0.6% | 0% | – |
| Cn1cnc2[nH]c(=O)[nH]c(=O)c21 [7-Methyl Xanthine] | 0% | 0% | – |
| Cc1nc2[nH]c(=O)[nH]c(=O)c2[nH]1 [8-Methyl Xanthine] | 0% | 0% | – |
| COc1ccc2c(c1)[C@]13CCCC[C@@H]1[C@H](C2)N(C)CC3 [Dextromethorphan] | – | – | mean performance ±SE ([3]; EMs (extensive metabolizers)): 95±0.5%; mean performance ±SE ([3]; PMs (poor metabolizers)): 86±6% |
| Nc1nc2nc[nH]c2c(=O)[nH]1 [Guanine] | 0% | 0% | – |
| O=c1[nH]cnc2nc[nH]c12 [Hypoxanthine] | 0% | 0% | – |
| NC(=O)c1cccnc1 [Nicotinamide] | – | – | effect on lipoproteins ([4]; doses similar to those of nicotinic acid): does not have a significant effect on lipoproteins |
| O=c1cc[nH]c(=O)[nH]1 [Uracil] | 0% | 0% | – |
| O=c1[nH]c(=O)c2[nH]c(=O)[nH]c2[nH]1 [Uric acid] | 0% | 0% | – |
| O=c1[nH]c(=O)c2[nH]cnc2[nH]1 [Xanthine] | 0^a % | 0% | – |
| Nc1ccc(S(=O)(=O)c2ccc(N)cc2)cc1 [dapsone] | – | – | adverse reactions to dapsone ([5]; fast acetylators): 17%; adverse reactions to dapsone ([5]; slow acetylators): 46% |
| O=C(O)c1cccnc1 [niacin, nicotinic acid] | – | – | LDL cholesterol reduction ([4]; 1000 to 1500 mg per day): about 15%; reduction of triglyceride levels ([4]; 1000 to 1500 mg per day): up to 30%; LDL cholesterol-lowering effect ([4]; 2000 to 4000 mg per day): ~25%; increase in HDL cholesterol level ([4]; 2000 to 4000 mg per day): up to 30%; reduction of triglyceride levels ([4]; 2000 to 4000 mg per day): up to 50%; effect on lipoproteins ([4]; low dosages (<500 mg per day)): little predictable effect |
